Measurements from patent publication US9586947B2, “Imidazoline derivatives, preparation methods thereof, and their applications in medicine” (priority 2012, dated 2017).
Like-named read-outs stand apart in the source and are kept apart here.

Assays:
[1] = system: PSA secretion of LNCaP cells; assay: Inhibitory activity on PSA secretion of LNCaP cells; assay type: cell-based; conditions: Homo sapiens, 96 h, read-out: IC50 (inhibition of PSA secretion of LNCaP cells)
Protocol: The following in vitro assay was performed to determine the activity of the compounds of the present invention for inhibiting prostate specific antigen (PSA) secretion of LNCaP cells.
(11). Testosterone culture medium: RIPM 1640 culture medium, 10% CS-FBS, 1% Pen Strep, 1 nM testosterone
LNCaP cells were subcultured in cell culture medium, resuspended in active carbon culture medium, and then inoculated into a 96-well plate (100 μl/well) with an inoculation density of 5×10^4 cells/well.
The test compounds were dissolved in DMSO (dimethyl sulfoxide) and prepared as a 10 mM stock solution. When used, the stock solution was diluted with 5×DMSO and then diluted with a threefold gradient to obtain 8 gradient concentrations. Then, the 8 gradient concentrations were each diluted with 20× testosterone culture medium, in order to ensure DMSO concentration in each culture system was 0.5%. Diluted test compounds remained to be tested.
10 μl of diluted test compounds were added to a 96-well plate and mixed gently. 10 μl of 0.5% DMSO diluted with active carbon culture medium was added to the blank group, and 10 μl of 0.5% DMSO diluted with testosterone culture medium was added to the control group. The 96-well plate was cultured in an incubator under the conditions of 37° C. and 5% CO2.
After 4 days of incubation, 60 μl of cell cultural supernatants were collected, and the OD450 value per well was measured on a NOVO Star microplate reader using PSA kit (Abnova, KA0208).
(§1) IC50 values were calculated from the data of the inhibition rates of the test compounds at various concentrations.

[2] = system: LNCaP cells; assay: Proliferation inhibition of LNCaP cells (CCK-8); assay type: cell-based; conditions: Homo sapiens, 144 h, cultured 3 + 3 days, CCK-8, OD at 450 nm
Protocol: The following in vitro assay was performed to determine the activity of the compounds of the present invention for inhibiting the proliferation of LNCaP cells.
(1). Cell counting reagent CCK-8 (DOJINDO, CK04)
See experimental procedure from Test Example 1.
After LNCaP cells were cultured for 3 days, the culture medium, test compounds, blank group, and control group were renewed with half of the liquid volume, and were cultured for another 3 days. Then, all 96-well plates were mixed gently with 10 μl of CCK-8 and cultured in an incubator for 2-3 hours under the conditions of 37° C. and 5% CO2. The OD value per well was measured at 450 nm on a Victor3 microplate reader.
as §1

[3] = Pharmacokinetics assay in rats, intragastric administration; assay type: in vivo; conditions: Sprague-Dawley, rat, in vivo, po, male SD rats, 5 mg/kg; for Vd/F: read-out: Apparent Distribution Volume Vz/F; for AUC: read-out: Area Under Curve AUC; for CL/F: read-out: Clearance CLz/F; for half-life: read-out: Half-Life T½ (converted); for MRT: read-out: Mean Residence Time MRT; for Cmax: read-out: Plasma Conc. Cmax
Protocol: Male rats were used as test animals. The compounds of Example 6, Example 9, Example 11, Example 13, Example 15, Example 16, Example 17, Example 44, and Example 45 were administered intragastrically to rats to determine the drug concentration in plasma at different time points by LC/MS/MS method. The pharmacokinetic behavior of the compounds of the present invention was studied and evaluated in rats.
27 healthy adult male Sprague-Dawley (SD) rats, purchased from SINO-BRITISH SIPPR/BK LAB. ANIMAL LTD., CO, Certificate No.: SCXK (Shanghai) 2008-0016, were divided into 9 groups, with 3 rats in each group.
The appropriate amount of test compounds was weighed and mixed with 0.5% CMC-Na to prepare a 0.5 mg/mL suspension by an ultrasonic method.
After an overnight fast, 27 SD rats were divided into 9 groups, and administered the compounds intragastrically at a dose of 5.0 mg/kg and an administration volume of 10 mL/kg.
Compounds of Example 6, Example 9, Example 11, Example 13, Example 15, Example 16, Example 17, Example 44, and Example 45 were administered intragastrically to rats. Blood samples (0.1 mL) were taken from the orbital sinus before administration, and at 0.5 h, 1.0 h, 2.0 h, 3.0 h, 4.0 h, 6.0 h, 8.0 h, 11.0 h, and 24.0 h after administration, stored in heparinized tubes, and centrifuged for 5 minutes at 3,500 rpm to separate blood plasma. The plasma samples were stored at −20° C. The rats were fed 2 hours after administration.
The concentration of the different test compounds in rat plasma after intragastrically administering the test compounds was determined by LC-MS/MS method. The linearity of the method is 1.00-2000 ng/ml. Plasma samples were analyzed after protein precipitation was accomplished by the addition of methanol.

[4] = LNCaP cells, 1 nM testosterone medium, 4 days of incubation, PSA kit OD450

In the case of `CC1(C)C(=O)N(c2ccc(C#N)c(C(F)(F)F)c2)C(=S)N1c1ccc(O[C@H]2CCOC2)c(F)c1` [Example 2, (S)-4-(3-(3-Fluoro-4-((tetrahydrofuran-3-yl)oxy)phenyl)-4,4-dimethyl-5-oxo-2-thioxoimidazolidin-1-yl)-2-(trifluoromethyl)benzonitrile], the IC50 [1, 4] is reported as 45 nM and the IC50 [2] is reported as 97 nM.
For `CC1(C)C(=O)N(c2ccc(C#N)c(C(F)(F)F)c2)C(=S)N1c1ccc(OC2CCNC2)c(F)c1` (stereo not shown) [Example 28, 4-(3-(3-Fluoro-4-((pyrrolidin-3-yl)oxy)phenyl)-4,4-dimethyl-5-oxo-2-thioxoimidazolidin-1-yl)-2-(trifluoromethyl)benzonitrile], the IC50 [1, 4] was 82 nM and the IC50 [2] was 79 nM.
`CC1(C)C(=O)N(c2ccc(C#N)c(C(F)(F)F)c2)C(=S)N1c1ccc(OCC2(C#N)CC2)c(F)c1` [Example 39, 4-(3-(4-((1-Cyanocyclopropyl)methoxy)-3-fluorophenyl)-4,4-dimethyl-5-oxo-2-thioxoimidazolidin-1-yl)-2-(trifluoromethyl)benzonitrile] gave an IC50 [1, 4] of 27 nM and an IC50 [2] of 256 nM.
For `CC1(C)C(=O)N(c2ccc(C#N)c(C(F)(F)F)c2)C(=S)N1c1ccc(OCC2(N)CC2)cc1` [Example 37, 4-(3-(4-((1-Aminocyclopropyl)methoxy)phenyl)-4,4-dimethyl-5-oxo-2-thioxoimidazolidin-1-yl)-2-(trifluoromethyl)benzonitrile], the IC50 [1, 4] was 23 nM and the IC50 [2] was 63 nM.
`CN1CC[C@H](Oc2ccc(N3C(=S)N(c4ccc(C#N)c(C(F)(F)F)c4)C(=O)C3(C)C)cc2F)C1` [Example 27, (S)-4-(3-(3-Fluoro-4-((1-methylpyrrolidin-3-yl)oxy)phenyl)-4,4-dimethyl-5-oxo-2-thioxoimidazolidin-1-yl)-2-(trifluoromethyl)benzonitrile] gave an IC50 [1, 4] of 83 nM.
With `CC1(C)C(=O)N(c2ccc(C#N)c(C(F)(F)F)c2)C(=S)N1c1ccc(OC2COC2)c(F)c1` [Example 41, 4-(3-(3-Fluoro-4-((oxetan-3-yl)oxy)phenyl)-4,4-dimethyl-5-oxo-2-thioxoimidazolidin-1-yl)-2-(trifluoromethyl)benzonitrile] the IC50 [1, 4] was 24 nM and the IC50 [2] was 283 nM.
Compound `CC1(C)C(=O)N(c2ccc(C#N)c(C(F)(F)F)c2)C(=S)N1c1ccc(OCC2(N)CC2)nc1` [Example 11, 4-(3-(6-((1-Aminocyclopropyl)methoxy)pyridin-3-yl)-4,4-dimethyl-5-oxo-2-thioxoimidazolidin-1-yl)-2-(trifluoromethyl)benzonitrile] has an IC50 ([1]; LNCaP) of 35 nM, a Vd/F [3] of 9.94 ± 0.633 L/kg and an AUC [3] of 11400 ± 1380 ng·h/mL. The CL/F [3] was 7.35 ± 0.87 mL/min/kg, the half-life [3] was 15.8 ± 2.2 h and the MRT [3] was 23.2 ± 2.9 h. For the same compound, the Cmax [3] was 430 ± 14 ng/mL.
`CC(=O)N1CC(O)C(Oc2ccc(N3C(=S)N(c4ccc(C#N)c(C(F)(F)F)c4)C(=O)C3(C)C)cc2F)C1` (stereo not shown) [Example 46, 4-(3-(4-((1-Acetyl-4-hydroxypyrrolidin-3-yl)oxy)-3-fluorophenyl)-4,4-dimethyl-5-oxo-2-thioxoimidazolidin-1-yl)-2-(trifluoromethyl)benzonitrile] showed an IC50 [1, 4] of 47 nM.
Compound `CN1CC(O)C(Oc2ccc(N3C(=S)N(c4ccc(C#N)c(C(F)(F)F)c4)C(=O)C3(C)C)cc2F)C1` (stereo not shown) [Example 47, 4-(3-(3-Fluoro-4-((4-hydroxy-1-methylpyrrolidin-3-yl)oxy)phenyl)-4,4-dimethyl-5-oxo-2-thioxoimidazolidin-1-yl)-2-(trifluoromethyl)benzonitrile] has an IC50 [1, 4] of 21 nM.
Compound `CC1(C)C(=O)N(c2ccc(C#N)c(C(F)(F)F)c2)C(=S)N1c1ccc(OC[C@@H](O)CO)c(F)c1` [Example 49, (S)-4-(3-(4-(2,3-Dihydroxypropoxy)-3-fluorophenyl)-4,4-dimethyl-5-oxo-2-thioxoimidazolidin-1-yl)-2-(trifluoromethyl)benzonitrile] has an IC50 ([1]; LNCaP) of 35 nM.
For `CC1(C)C(=O)N(c2ccc(C#N)c(C(F)(F)F)c2)C(=S)N1c1ccc(OCCO)cc1` [Example 17, 4-(3-(4-(2-Hydroxyethoxy)phenyl)-4,4-dimethyl-5-oxo-2-thioxoimidazolidin-1-yl)-2-(trifluoromethyl)benzonitrile], the IC50 ([1]; LNCaP) was 24 nM, the Vd/F [3] was 3.76 ± 0.591 L/kg and the AUC [3] was 12200 ± 1520 ng·h/mL. The CL/F [3] was 6.88 ± 0.89 mL/min/kg, the half-life [3] was 6.31 ± 0.5 h and the MRT [3] was 10.8 ± 0.8 h. For the same compound, the Cmax [3] was 864 ± 86 ng/mL.
Compound `Cc1cc(N2C(=O)C(C)(C)N(c3ccc(OCC4(N)CC4)c(F)c3)C2=S)ccc1C#N` [Example 38, 4-(3-(4-((1-Aminocyclopropyl)methoxy)-3-fluorophenyl)-4,4-dimethyl-5-oxo-2-thioxoimidazolidin-1-yl)-2-methylbenzonitrile] has an IC50 [1, 4] of 33 nM.
For `CC1(C)C(=O)N(c2ccc(C#N)c(C(F)(F)F)c2)C(=S)N1c1ccc(O[C@H]2COC[C@@H]2O)cc1` [Example 16, 4-(3-(4-(((3S,4S)-4-hydroxytetrahydrofuran-3-yl)oxy)phenyl)-4,4-dimethyl-5-oxo-2-thioxoimidazolidin-1-yl)-2-(trifluoromethyl)benzonitrile], the IC50 ([1]; LNCaP) was 12 nM, the Vd/F [3] was 3.59 ± 0.662 L/kg and the AUC [3] was 23300 ± 5900 ng·h/mL. It also gave a CL/F [3] of 3.71 ± 0.84 mL/min/kg, a half-life [3] of 11.3 ± 1.3 h and an MRT [3] of 18.4 ± 2.6 h. For the same compound, the Cmax [3] was 971 ± 147 ng/mL.
`CC1(C)C(=O)N(c2ccc(C#N)c(C(F)(F)F)c2)C(=S)N1c1ccc(O[C@@H]2COC[C@H]2O)c(F)c1` (racemic) [Example 7, 4-(3-(3-Fluoro-4-(((3R,4R/3S,4S)-4-hydroxytetrahydrofuran-3-yl)oxy)phenyl)-4,4-dimethyl-5-oxo-2-thioxoimidazolidin-1-yl)-2-(trifluoromethyl)benzonitrile] showed an IC50 ([1]; LNCaP) of 23 nM.
Compound `CC1(C)C(=O)N(c2ccc(C#N)c(C(F)(F)F)c2)C(=S)N1c1ccc(OC2CCOCC2)c(F)c1` [Example 4, 4-(3-(3-Fluoro-4-((tetrahydro-2H-pyran-4-yl)oxy)phenyl)-4,4-dimethyl-5-oxo-2-thioxoimidazolidin-1-yl)-2-(trifluoromethyl)benzonitrile] has an IC50 [1, 4] of 93 nM.
`CC1(C)C(=O)N(c2ccc(C#N)c(C(F)(F)F)c2)C(=S)N1c1ccc(O[C@@H]2COC[C@H]2O)cc1` (racemic) [Example 14, 4-(3-(4-(((3R,4R/3S,4S)-4-Hydroxytetrahydrofuran-3-yl)oxy)phenyl)-4,4-dimethyl-5-oxo-2-thioxoimidazolidin-1-yl)-2-(trifluoromethyl)benzonitrile] gave an IC50 ([1]; LNCaP) of 19 nM.
Compound `CC1(C)C(=O)N(c2ccc(C#N)c(C(F)(F)F)c2)C(=S)N1c1ccc(OC[C@H](O)CO)c(F)c1` [Example 50, (R)-4-(3-(4-(2,3-Dihydroxypropoxy)-3-fluorophenyl)-4,4-dimethyl-5-oxo-2-thioxoimidazolidin-1-yl)-2-(trifluoromethyl)benzonitrile] has an IC50 ([1]; LNCaP) of 43 nM.
